Laboratory results: publication PMC9229919, “4-Aminoquinoline-Based Adamantanes as Potential Anticholinesterase Agents in Symptomatic Treatment of Alzheimer’s Disease” (Pharmaceutics, 2022)
Like-named read-outs stand apart in the source and are kept apart here.

Tests used:
purified human BChE = target: T1, purified human BChE (Homo sapiens, UniProt P06276); experiment: biochemical; type: biochemical
T1 construct: possibly also a gift of Dr Florian Nachon (the sentence is ambiguous)
Outline: (§1)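 Modified Ellman assay with acetylthiocholine and DTNB in 0.1 M sodium phosphate pH 7.4 (enzymes diluted with 0.1% BSA), ≤0.2% DMSO, 25 °C. At least three inhibitor concentrations per substrate level; Ki,app from Hunter–Downs equation, Ki from y-intercept and inhibition type from Ki,app vs [S].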

recombinant human AChE = target: T2, recombinant human AChE (Homo sapiens, UniProt P22303); experiment: biochemical; type: biochemical; details: for IS: IS = Ki(BChE)/Ki(AChE), IS > 1 selective to AChE
T2 construct: gift of Dr Florian Nachon (Armed Forces Biomedical Research Institute, Brétigny-sur-Orge, France)
Outline: as §1

[1] = Ferric reducing antioxidant power (FRAP) assay; details: mean ± standard error of three experiments;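 note: expressed as µM Fe2+ equivalents from an FeSO4·7H2O standard curve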
Outline: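 Ferric-TPTZ reduction measured by absorbance at 593 nm after 60 min at 37 °C in pH 3.6 acetate-buffered TPTZ/FeCl3 reagent, with test compounds at 10 and 100 µM. FRAP values calculated from an Fe2SO4·7H2O standard curve. Data from three independent experiments.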

[2] = Reverse-phase thin-layer chromatographic lipophilicity (RF, RM0); type: physicochemical; details: for RM0: intercept of RM = RM0 + bC; for b: slope of RM = RM0 + bC; for RF, Methanol/Water/Hydrochloric acid (conc.), mobile phase I / RF, Dioxane/Water/Hydrochloric acid (conc.), mobile phase II / RF, Methanol/Water/Hydrochloric acid (conc.), mobile phase II / RF, Acetone/Water/Hydrochloric acid (conc.), mobile phase III / RF, Dioxane/Water/Hydrochloric acid (conc.), mobile phase III / RF, Methanol/Water/Hydrochloric acid (conc.), mobile phase III / RF, Dioxane/Water/Hydrochloric acid (conc.), mobile phase IV / RF, Acetone/Water/Hydrochloric acid (conc.), mobile phase IV / RF, Methanol/Water/Hydrochloric acid (conc.), mobile phase IV / RF, Acetone/Water/Hydrochloric acid (conc.), mobile phase IX / RF, Methanol/Water/Hydrochloric acid (conc.), mobile phase IX / RF, Dioxane/Water/Hydrochloric acid (conc.), mobile phase V / RF, Acetone/Water/Hydrochloric acid (conc.), mobile phase V / RF, Methanol/Water/Hydrochloric acid (conc.), mobile phase V / RF, Dioxane/Water/Hydrochloric acid (conc.), mobile phase VI / RF, Acetone/Water/Hydrochloric acid (conc.), mobile phase VI / RF, Methanol/Water/Hydrochloric acid (conc.), mobile phase VI / RF, Acetone/Water/Hydrochloric acid (conc.), mobile phase VII / RF, Methanol/Water/Hydrochloric acid (conc.), mobile phase VII / RF, Acetone/Water/Hydrochloric acid (conc.), mobile phase VIII / RF, Methanol/Water/Hydrochloric acid (conc.), mobile phase VIII: RP-18 silica; for RF, Methanol/Water/Hydrochloric acid (conc.), mobile phase I: I = 90%MeOH/5%H2O/5%HCl; for RF, Dioxane/Water/Hydrochloric acid (conc.), mobile phase II: II = 80%Dioxane/15%H2O/5%HCl; for RF, Methanol/Water/Hydrochloric acid (conc.), mobile phase II: II = 85%MeOH/10%H2O/5%HCl; for RF, Acetone/Water/Hydrochloric acid (conc.), mobile phase III: III = 70%AC/25%H2O/5%HCl; for RF, Dioxane/Water/Hydrochloric acid (conc.), mobile phase III: III = 70%Dioxane/25%H2O/5%HCl; for RF, Methanol/Water/Hydrochloric acid (conc.), mobile phase III: III = 80%MeOH/15%H2O/5%HCl; for RF, Dioxane/Water/Hydrochloric acid (conc.), mobile phase IV: IV = 60%Dioxane/35%H2O/5%HCl; for RF, Acetone/Water/Hydrochloric acid (conc.), mobile phase IV: IV = 65%AC/30%H2O/5%HCl; for RF, Methanol/Water/Hydrochloric acid (conc.), mobile phase IV: IV = 75%MeOH/20%H2O/5%HCl; for RF, Acetone/Water/Hydrochloric acid (conc.), mobile phase IX: IX = 40%AC/55%H2O/5%HCl; for RF, Methanol/Water/Hydrochloric acid (conc.), mobile phase IX: IX = 50%MeOH/45%H2O/5%HCl; for RF, Dioxane/Water/Hydrochloric acid (conc.), mobile phase V: V = 50%Dioxane/45%H2O/5%HCl; for RF, Acetone/Water/Hydrochloric acid (conc.), mobile phase V: V = 60%AC/35%H2O/5%HCl; for RF, Methanol/Water/Hydrochloric acid (conc.), mobile phase V: V = 70%MeOH/25%H2O/5%HCl; for RF, Dioxane/Water/Hydrochloric acid (conc.), mobile phase VI: VI = 40%Dioxane/55%H2O/5%HCl; for RF, Acetone/Water/Hydrochloric acid (conc.), mobile phase VI: VI = 55%AC/40%H2O/5%HCl; for RF, Methanol/Water/Hydrochloric acid (conc.), mobile phase VI: VI = 65%MeOH/30%H2O/5%HCl; for RF, Acetone/Water/Hydrochloric acid (conc.), mobile phase VII: VII = 50%AC/45%H2O/5%HCl; for RF, Methanol/Water/Hydrochloric acid (conc.), mobile phase VII: VII = 60%MeOH/35%H2O/5%HCl; for RF, Acetone/Water/Hydrochloric acid (conc.), mobile phase VIII: VIII = 45%AC/50%H2O/5%HCl; for RF, Methanol/Water/Hydrochloric acid (conc.), mobile phase VIII: VIII = 55%MeOH/40%H2O/5%HCl
Outline: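 Lipophilicity from RP-TLC retention at 22±2 °C over a 4.5 cm development distance. Eluents: organic modifier (methanol, acetone or dioxane), water and hydrochloric acid, methanol stepped by 10%. RM0 obtained from RF.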

[3] = logarithm of Ki in µM, BChE, dependent variable of the QSAR model, read-out: Y Measured 2 log(ki)Bche, log (Ki/µM BChE) (converted)
[4] = ± standard error, 25 °C, ATCh substrate, read-out: Ki BChE
[5] = log (Ki/µM AChE), read-out: Y Measured 1 log(ki)Ache (converted)
[6] = ± standard error, 25 °C, ATCh substrate, read-out: Ki AChE
[7] = Acetone/Water/Hydrochloric acid (conc.)
[8] = Dioxane/Water/Hydrochloric acid (conc.)
[9] = Methanol/Water/Hydrochloric acid (conc.)

T1 sequence (P06276 29-602): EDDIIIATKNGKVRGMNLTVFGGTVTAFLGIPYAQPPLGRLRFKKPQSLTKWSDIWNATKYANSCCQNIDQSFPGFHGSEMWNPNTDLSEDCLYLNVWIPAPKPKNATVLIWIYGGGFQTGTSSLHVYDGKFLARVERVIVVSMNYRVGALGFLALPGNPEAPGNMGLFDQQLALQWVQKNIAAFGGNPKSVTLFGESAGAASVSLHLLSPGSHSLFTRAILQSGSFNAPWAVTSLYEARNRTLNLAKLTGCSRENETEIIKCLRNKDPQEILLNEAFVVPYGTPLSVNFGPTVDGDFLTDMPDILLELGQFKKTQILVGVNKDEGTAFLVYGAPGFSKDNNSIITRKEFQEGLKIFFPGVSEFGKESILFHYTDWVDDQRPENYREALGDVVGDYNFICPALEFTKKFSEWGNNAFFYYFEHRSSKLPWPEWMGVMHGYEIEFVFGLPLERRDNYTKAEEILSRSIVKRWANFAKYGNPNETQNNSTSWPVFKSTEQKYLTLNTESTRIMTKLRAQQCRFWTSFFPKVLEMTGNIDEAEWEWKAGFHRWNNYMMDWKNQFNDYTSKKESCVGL
T2 sequence (P22303 32-614): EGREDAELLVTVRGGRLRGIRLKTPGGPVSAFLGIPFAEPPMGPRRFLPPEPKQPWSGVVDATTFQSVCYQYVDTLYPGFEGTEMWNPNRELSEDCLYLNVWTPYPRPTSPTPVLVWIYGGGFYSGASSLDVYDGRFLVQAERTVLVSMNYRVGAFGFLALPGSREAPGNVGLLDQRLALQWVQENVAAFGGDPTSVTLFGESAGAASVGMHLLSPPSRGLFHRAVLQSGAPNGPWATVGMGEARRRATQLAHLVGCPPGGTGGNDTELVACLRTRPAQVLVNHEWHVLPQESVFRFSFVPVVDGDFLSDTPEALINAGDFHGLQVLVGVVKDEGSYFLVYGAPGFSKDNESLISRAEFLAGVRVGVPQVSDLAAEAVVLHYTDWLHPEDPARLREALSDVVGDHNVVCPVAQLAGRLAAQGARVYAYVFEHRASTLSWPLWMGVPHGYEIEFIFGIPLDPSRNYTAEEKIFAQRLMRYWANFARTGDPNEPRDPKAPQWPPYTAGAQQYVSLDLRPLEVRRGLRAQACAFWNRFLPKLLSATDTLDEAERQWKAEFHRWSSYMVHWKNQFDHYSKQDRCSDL

Row | Compound | Ki (purified human BChE; [3]) [µM] | Ki (purified human BChE; [4]) [µM] | IS (recombinant human AChE) | Ki (recombinant human AChE; [5]) [µM] | Ki (recombinant human AChE; [6]) [µM] | FRAP ([1]; 10 µM compound) [µM] | FRAP ([1]; 100 µM compound) [µM] | RM0 [2, 7] | b [2, 7] | RM0 [2, 8] | b [2, 8] | RM0 [2, 9] | b [2, 9] | RF, Methanol/Water/Hydrochloric acid (conc.), mobile phase I [2] | RF, Dioxane/Water/Hydrochloric acid (conc.), mobile phase II [2] | RF, Methanol/Water/Hydrochloric acid (conc.), mobile phase II [2] | RF, Acetone/Water/Hydrochloric acid (conc.), mobile phase III [2] | RF, Dioxane/Water/Hydrochloric acid (conc.), mobile phase III [2] | RF, Methanol/Water/Hydrochloric acid (conc.), mobile phase III [2] | RF, Dioxane/Water/Hydrochloric acid (conc.), mobile phase IV [2] | further results
1 | FC(F)(F)c1ccc2c(NCCCNCC34CC5CC(CC(C5)C3)C4)ccnc2c1 [Compound 7] | 2.6 | 2.6 ± 0.2 | 2.4 | 1.1 | 1.1 | 7.1 ± 2.1 | 21 ± 7 | 2.012 | 3.156 | 0.9445 | 1.874 | 2.606 | 3.427 | 0.73 | 0.74 | 0.67 | 0.57 | 0.7 | 0.51 | 0.7 | RF, Acetone/Water/Hydrochloric acid (conc.), mobile phase IV [2]: 0.54; RF, Methanol/Water/Hydrochloric acid (conc.), mobile phase IV [2]: 0.51; RF, Acetone/Water/Hydrochloric acid (conc.), mobile phase IX [2]: 0.11; RF, Methanol/Water/Hydrochloric acid (conc.), mobile phase IX [2]: 0.09; RF, Dioxane/Water/Hydrochloric acid (conc.), mobile phase V [2]: 0.51; RF, Acetone/Water/Hydrochloric acid (conc.), mobile phase V [2]: 0.42; RF, Methanol/Water/Hydrochloric acid (conc.), mobile phase V [2]: 0.44; RF, Dioxane/Water/Hydrochloric acid (conc.), mobile phase VI [2]: 0.33; RF, Acetone/Water/Hydrochloric acid (conc.), mobile phase VI [2]: 0.36; RF, Methanol/Water/Hydrochloric acid (conc.), mobile phase VI [2]: 0.36; RF, Acetone/Water/Hydrochloric acid (conc.), mobile phase VII [2]: 0.32; RF, Methanol/Water/Hydrochloric acid (conc.), mobile phase VII [2]: 0.23; RF, Acetone/Water/Hydrochloric acid (conc.), mobile phase VIII [2]: 0.24; RF, Methanol/Water/Hydrochloric acid (conc.), mobile phase VIII [2]: 0.15
2 | Clc1ccc2c(NCCNCC34CC5CC(CC(C5)C3)C4)ccnc2c1 [Compound 1] | 2.1 | 2.1 ± 0.2 | 1.8 | 1.2 | 1.2 ± 0.1 | 2.4 ± 1.3 | 20 ± 4 | 1.738 | 2.883 | 0.8129 | 1.796 | 2.081 | 2.812 | 0.72 | 0.78 | 0.68 | 0.62 | 0.73 | 0.54 | 0.73 | less potent inhibitors of BChE than compounds 3 or 4 (purified human BChE): about 3.2 times; RF, Acetone/Water/Hydrochloric acid (conc.), mobile phase IV [2]: 0.59; RF, Methanol/Water/Hydrochloric acid (conc.), mobile phase IV [2]: 0.55; RF, Acetone/Water/Hydrochloric acid (conc.), mobile phase IX [2]: 0.16; RF, Methanol/Water/Hydrochloric acid (conc.), mobile phase IX [2]: 0.15; RF, Dioxane/Water/Hydrochloric acid (conc.), mobile phase V [2]: 0.55; RF, Acetone/Water/Hydrochloric acid (conc.), mobile phase V [2]: 0.51; RF, Methanol/Water/Hydrochloric acid (conc.), mobile phase V [2]: 0.48; RF, Dioxane/Water/Hydrochloric acid (conc.), mobile phase VI [2]: 0.4; RF, Acetone/Water/Hydrochloric acid (conc.), mobile phase VI [2]: 0.41; RF, Methanol/Water/Hydrochloric acid (conc.), mobile phase VI [2]: 0.43; RF, Acetone/Water/Hydrochloric acid (conc.), mobile phase VII [2]: 0.36; RF, Methanol/Water/Hydrochloric acid (conc.), mobile phase VII [2]: 0.28; RF, Acetone/Water/Hydrochloric acid (conc.), mobile phase VIII [2]: 0.32; RF, Methanol/Water/Hydrochloric acid (conc.), mobile phase VIII [2]: 0.22
